Measurements reported in US6818445B2 (Synaptic Pharmaceutical Corporation, priority 1994, dated 2004).

Key:
human Y1 receptor = molecular target: T1, human Y1 receptor (Homo sapiens, UniProt P25929); conditions: read-out: Binding Affinity (Ki (nM) vs. ^125I-PYY) Human Receptor Y1; Table 14
T1 sequence (P25929 1-384): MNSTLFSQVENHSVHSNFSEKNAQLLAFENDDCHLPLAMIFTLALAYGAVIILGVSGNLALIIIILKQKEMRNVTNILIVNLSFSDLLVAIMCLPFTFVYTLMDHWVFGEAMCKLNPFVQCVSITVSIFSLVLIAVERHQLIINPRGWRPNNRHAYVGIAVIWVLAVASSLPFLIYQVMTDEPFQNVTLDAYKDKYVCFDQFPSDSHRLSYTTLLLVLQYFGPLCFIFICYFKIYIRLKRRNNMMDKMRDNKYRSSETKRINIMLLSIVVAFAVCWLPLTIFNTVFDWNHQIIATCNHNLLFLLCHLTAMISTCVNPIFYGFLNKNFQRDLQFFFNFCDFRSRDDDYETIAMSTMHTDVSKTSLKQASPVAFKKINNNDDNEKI

human 5HT2 receptor = human 5HT2 receptor (Homo sapiens, UniProt P28223); experiment: Binding to human 5HT2 receptor, [3H]ketanserin; conditions: cloned human receptor
human α1a receptor = molecular target: T2, human α1a receptor (Homo sapiens, UniProt P35348); experiment: Binding to cloned human α1a adrenergic receptor
T2 sequence (P35348 1-466): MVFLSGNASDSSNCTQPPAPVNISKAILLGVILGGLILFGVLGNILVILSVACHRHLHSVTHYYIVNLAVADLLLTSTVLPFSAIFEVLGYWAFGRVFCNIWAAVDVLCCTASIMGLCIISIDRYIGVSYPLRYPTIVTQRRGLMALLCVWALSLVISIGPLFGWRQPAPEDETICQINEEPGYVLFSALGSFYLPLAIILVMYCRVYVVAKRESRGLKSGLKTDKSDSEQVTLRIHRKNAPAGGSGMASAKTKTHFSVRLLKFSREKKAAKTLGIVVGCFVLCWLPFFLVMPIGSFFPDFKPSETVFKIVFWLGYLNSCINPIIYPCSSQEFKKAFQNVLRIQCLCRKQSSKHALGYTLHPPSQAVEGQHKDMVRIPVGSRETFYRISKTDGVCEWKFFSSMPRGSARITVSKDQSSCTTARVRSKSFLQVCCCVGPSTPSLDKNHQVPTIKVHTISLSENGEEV

human α1d receptor = molecular target: T3, human α1d receptor (Homo sapiens, UniProt P25100); experiment: Binding to cloned human α1d adrenergic receptor
T3 sequence (P25100 1-572): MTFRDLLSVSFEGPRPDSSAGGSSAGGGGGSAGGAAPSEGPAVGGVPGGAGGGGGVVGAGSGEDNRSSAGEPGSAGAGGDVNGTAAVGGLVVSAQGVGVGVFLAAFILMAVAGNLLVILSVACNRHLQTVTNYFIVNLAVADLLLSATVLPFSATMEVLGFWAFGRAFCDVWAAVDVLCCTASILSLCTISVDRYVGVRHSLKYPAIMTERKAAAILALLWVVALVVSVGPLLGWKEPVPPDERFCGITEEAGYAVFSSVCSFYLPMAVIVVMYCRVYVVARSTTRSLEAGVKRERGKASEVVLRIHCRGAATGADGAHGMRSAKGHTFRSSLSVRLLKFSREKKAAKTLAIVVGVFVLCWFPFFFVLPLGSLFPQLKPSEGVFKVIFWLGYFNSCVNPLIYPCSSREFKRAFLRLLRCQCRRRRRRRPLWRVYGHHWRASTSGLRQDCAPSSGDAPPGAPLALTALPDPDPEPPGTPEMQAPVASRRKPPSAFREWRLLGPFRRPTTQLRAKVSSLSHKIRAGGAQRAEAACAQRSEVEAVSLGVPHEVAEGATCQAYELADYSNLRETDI

human 5-HT7 receptor = human 5-HT7 receptor (Homo sapiens, UniProt P34969); experiment: Binding to human 5-HT7 receptor; conditions: cloned human receptor
human α2B receptor = molecular target: T4, human α2B receptor (Homo sapiens, UniProt P18089); experiment: Binding to cloned human α2B adrenergic receptor, [3H]rauwolscine
T4 sequence (P18089 1-450): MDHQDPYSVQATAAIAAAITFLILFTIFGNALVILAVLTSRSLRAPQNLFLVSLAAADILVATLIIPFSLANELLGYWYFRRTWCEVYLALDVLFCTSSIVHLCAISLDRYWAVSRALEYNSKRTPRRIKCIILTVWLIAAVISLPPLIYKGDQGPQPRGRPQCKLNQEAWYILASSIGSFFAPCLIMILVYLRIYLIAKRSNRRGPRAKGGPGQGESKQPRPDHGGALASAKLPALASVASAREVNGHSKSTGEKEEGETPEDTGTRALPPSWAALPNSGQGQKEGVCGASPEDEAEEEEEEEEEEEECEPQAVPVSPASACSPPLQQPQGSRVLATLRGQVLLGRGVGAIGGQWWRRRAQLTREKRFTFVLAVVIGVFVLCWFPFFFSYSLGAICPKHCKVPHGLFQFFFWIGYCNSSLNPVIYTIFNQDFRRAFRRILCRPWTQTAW

human α1b receptor = molecular target: T5, human α1b receptor (Homo sapiens, UniProt P35368); experiment: Binding to cloned human α1b adrenergic receptor
T5 sequence (P35368 1-520): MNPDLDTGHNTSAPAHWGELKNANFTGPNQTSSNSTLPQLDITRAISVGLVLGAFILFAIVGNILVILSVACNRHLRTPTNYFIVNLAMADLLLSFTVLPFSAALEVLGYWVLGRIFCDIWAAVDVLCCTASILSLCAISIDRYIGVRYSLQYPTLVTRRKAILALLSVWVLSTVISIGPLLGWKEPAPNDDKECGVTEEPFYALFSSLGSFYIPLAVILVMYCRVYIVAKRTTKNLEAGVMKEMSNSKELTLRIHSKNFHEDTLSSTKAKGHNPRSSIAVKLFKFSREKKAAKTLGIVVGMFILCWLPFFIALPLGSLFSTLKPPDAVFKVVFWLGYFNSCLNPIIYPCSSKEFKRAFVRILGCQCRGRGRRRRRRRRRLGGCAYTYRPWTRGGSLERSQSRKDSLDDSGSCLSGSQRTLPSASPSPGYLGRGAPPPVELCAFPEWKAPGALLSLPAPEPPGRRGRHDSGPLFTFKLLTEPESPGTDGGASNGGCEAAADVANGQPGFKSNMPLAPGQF

[1] = test system: food intake of 24 h food-deprived rats; experiment: Food intake in food-deprived rats; assay type: in vivo, rat; conditions: 30 mg/kg i.p. after 24 h food deprivation, percentage of intake compared to control rats
Description: At the end of the equilibration period, food is removed from the animals for 24 hours starting at 8:00 a.m. At the end of the fasting period compound or vehicle may be administered to the animals orally or by injection intraperitoneally or intravenously. After 10-60 min. food is returned to the animals and their food intake is monitored at various time periods during the following 24 hour period. The food intake of animals treated with test compound may be calculated as a percentage of the food intake of control animals (i.e., animals treated with vehicle). Alternatively, food intake for each group of animals subjected to a particular experimental condition may be expressed as the mean±S.E.M.
Therefore, the Y5 antagonists of Table 14 were administered by intraperitoneal injection at a dose of 30 mg/kg to conscious rats following a 24 h food deprivation. […] Measurements were performed two hours after administration of the test compound.

human 5-HT7 receptor, sequence (P34969 1-445 isoform P34969-2): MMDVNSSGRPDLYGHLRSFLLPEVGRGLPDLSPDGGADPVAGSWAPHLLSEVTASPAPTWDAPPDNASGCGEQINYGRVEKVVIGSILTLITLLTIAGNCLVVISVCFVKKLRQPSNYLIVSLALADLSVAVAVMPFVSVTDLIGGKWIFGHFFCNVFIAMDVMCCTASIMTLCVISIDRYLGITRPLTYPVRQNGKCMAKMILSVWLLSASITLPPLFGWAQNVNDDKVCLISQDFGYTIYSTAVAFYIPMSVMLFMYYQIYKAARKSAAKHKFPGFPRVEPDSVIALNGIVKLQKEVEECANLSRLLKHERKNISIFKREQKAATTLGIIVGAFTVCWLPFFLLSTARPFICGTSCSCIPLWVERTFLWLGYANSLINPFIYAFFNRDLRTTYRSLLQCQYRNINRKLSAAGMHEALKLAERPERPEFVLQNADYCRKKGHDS
human 5HT2 receptor, sequence (P28223 whole entry): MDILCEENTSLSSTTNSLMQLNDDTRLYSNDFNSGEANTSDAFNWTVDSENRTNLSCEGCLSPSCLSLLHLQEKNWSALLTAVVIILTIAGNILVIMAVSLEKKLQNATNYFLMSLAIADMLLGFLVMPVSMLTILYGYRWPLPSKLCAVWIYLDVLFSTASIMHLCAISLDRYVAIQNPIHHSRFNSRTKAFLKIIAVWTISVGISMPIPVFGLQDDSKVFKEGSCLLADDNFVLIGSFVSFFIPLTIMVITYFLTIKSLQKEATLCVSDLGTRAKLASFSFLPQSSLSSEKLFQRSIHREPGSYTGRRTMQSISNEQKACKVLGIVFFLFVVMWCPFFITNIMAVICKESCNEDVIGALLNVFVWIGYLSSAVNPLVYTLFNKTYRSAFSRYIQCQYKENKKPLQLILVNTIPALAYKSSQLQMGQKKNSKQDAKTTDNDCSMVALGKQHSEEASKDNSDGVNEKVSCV

Cl.O=S(=O)(NC[C@H]1CC[C@H](CNCC2CCc3ccccc3C2)CC1)c1cccc2ccccc12 (stereo partly drawn) [Compound 19]
Ki (human Y1 receptor): 3550 nM
Receptor (pKi) 5HT2 (human 5HT2 receptor): 6.55
Receptor (pKi) α1a (human α1a receptor): 7.47
Receptor (pKi) α1d (human α1d receptor): 6.90
Receptor (pKi) 5HT7 (human 5-HT7 receptor): 6.42
Receptor (pKi) α2b (human α2B receptor): 6.58
Receptor (pKi) α1b (human α1b receptor): 7.35
Two-hour food intake of food-deprived rats, Mean (%) [1]: 36%

Cl.O=[N+]([O-])c1ccccc1S(=O)(=O)NC[C@H]1CC[C@H](CNCC2CCc3ccccc3C2)CC1 (stereo partly drawn) [Compound 20]
Ki (human Y1 receptor): 16000 nM
Receptor (pKi) 5HT2 (human 5HT2 receptor): 5.93
Receptor (pKi) α1a (human α1a receptor): 7.72
Receptor (pKi) α1d (human α1d receptor): 7.01
Receptor (pKi) 5HT7 (human 5-HT7 receptor): 6.37
Receptor (pKi) α2b (human α2B receptor): 6.96
Receptor (pKi) α1b (human α1b receptor): 7.22
Two-hour food intake of food-deprived rats, Mean (%) [1]: 35%

Cl.Cl.Nc1ccccc1S(=O)(=O)NCC1CCC(CNCC2CCc3ccccc3C2)CC1 (stereo not drawn) [Compound 22]
Ki (human Y1 receptor): 17200 nM
Receptor (pKi) 5HT2 (human 5HT2 receptor): 5.99
Receptor (pKi) α1a (human α1a receptor): 7.34
Receptor (pKi) α1d (human α1d receptor): 6.80
Receptor (pKi) 5HT7 (human 5-HT7 receptor): 6.39
Receptor (pKi) α2b (human α2B receptor): 6.43
Receptor (pKi) α1b (human α1b receptor): 6.98
Two-hour food intake of food-deprived rats, Mean (%) [1]: 55%
